Values after ≈ are worked out from the molar mass of the structure shown.
Columns and labels:
Type in all cases: functional
Lucilia cuprina [1] = assay: Insecticidal activity against newly hatched larvae of Lucilia cuprina assessed as mortality after 24 hr; settings: read-out: LD50 (the source's name)
Tineola bisselliella [2] = assay: Insecticidal activity against larvae of Tineola bisselliella assessed as survival after 14 days; settings: 336 h, read-out: LD50 (the source's name)
Eurhopalus australis [3] = assay: Insecticidal activity against larvae of Anthrenocerus australis assessed as survival after 14 days; settings: 336 h, read-out: LD50 (the source's name)
Eurhopalus australis [4] = assay: Insecticidal activity against larvae of Anthrenocerus australis assessed as survival at 125 to 4000 ppm after 14 days
Tineola bisselliella [5] = assay: Insecticidal activity against larvae of Tineola bisselliella assessed as survival at 430 to 4500 ppm after 14 days
Lucilia cuprina [6] = assay: Insecticidal activity against newly hatched larvae of Lucilia cuprina assessed as survival at 450 to 5130 ppm after 24 hr
Eurhopalus australis [7] = assay: Antifeedant activity against larvae of Anthrenocerus australis assessed as amount of food intake at 63 ppm after 14 days (reference value: 55.5 mg)

C/C=C1\[C@H]2C=C(C)C[C@]1(N)c1ccc(=O)[nH]c1C2 [HUPERZINE A]
LC50 (Lucilia cuprina [1]): 2380 µg/mL (≈ 9820 µM) | LC50 (Tineola bisselliella [2]): 630 µg/mL (≈ 2600 µM) | LC50 (Eurhopalus australis [3]): 110 µg/mL (≈ 454 µM) | Activity (Eurhopalus australis [4]): 3% | Activity (Tineola bisselliella [5]): 3% | Activity (Lucilia cuprina [6]): 8% | Activity (Eurhopalus australis [7]): 1.5 mg

From ChEMBL document CHEMBL3046058, “Insecticidal activity of huperzine A from the New Zealand clubmoss, Lycopodium varium” (2002)
